≈ marks a conversion by molar mass, not a printed value. Like-named read-outs stand apart in the source and are kept apart here.
Legend:
[1] = tested on: Escherichia coli cefazolin-resistant bacteria; test: survival rate with single amino acids or amino acid combination in synergy with cefazolin; format: cell-based
Experimental: Each amino acid in 2 mM compound amino acids was added alone with a corresponding concentration, and through survival rate of bacteria, it was studied improvement on sensitivity of bacteria to antibiotics when each amino acid was in synergy with cefazolin.

[2] = tested on: ampicillin-resistant bacteria (K12-RAMP); test: survival rate of bacteria, compound amino acids in synergy with ampicillin; format: cell-based, Escherichia coli; details: ampicillin 2000 μg/mL; second of 8 values, taken as ampicillin without compound amino acids
Experimental: Taking Escherichia coli sensitive bacteria K12 and artificially passaged ampicillin-resistant bacteria (K12-RAMP) as research objects, for the former, concentration of ampicillin was 40 μg/mL, and for the latter, concentration of ampicillin was 2000 μg/mL. It was investigated effects of 0.125, 0.5, 2.0, 8.0, 32, and 64 mM compound amino acids in synergy with antibiotics of the above concentrations on survival rates of sensitive bacteria and corresponding resistant bacteria.

[3] = tested on: Escherichia coli sensitive bacteria K12; test: survival rate of bacteria by plate count, compound amino acids in synergy with antibiotics; format: cell-based; details: for survival rate of bacteria: first of 7 values, taken as no compound amino acids
[4] = tested on: balofloxacin-resistant bacteria (K12-RBLFX); test: survival rate of bacteria, compound amino acids in synergy with balofloxacin; format: cell-based, Escherichia coli; details: balofloxacin 25 μg/mL; second of 8 values, taken as balofloxacin without compound amino acids
Experimental: Taking Escherichia coli sensitive bacteria K12 and balofloxacin-resistant artificially passaged resistant bacteria (K12-RBLFX) as research objects, for the former, concentration of balofloxacin was 0.2 μg/mL, and for the latter, concentration of balofloxacin was 25 μg/mL. It was investigated effects of compound amino acids of different concentrations in synergy with antibiotics of the above concentrations on survival rates of sensitive bacteria and corresponding resistant bacteria.

[5] = tested on: resistant bacteria K12-RCZO; format: cell-based, Escherichia coli
Experimental: Preparation of bacterial samples: monoclonal bacteria of sensitive bacteria K12 or resistant bacteria K12-RCZO were picked and inoculated in 50 mL LB liquid medium respectively. After incubation for 17 h at 37° C. and 200 rpm, bacterial cells were collected by centrifugation at 8000 rpm for 4 min; the bacterial cells were washed twice with 0.85% normal saline, suspended in 1×M9 medium, adjusted to OD600 as 0.6, and then dispensed 5 mL into test tubes for subsequent experimental research.
Each of prepared bacterial samples was divided into 4 groups: control group, group of 2 mM 5% compound amino acids added only, and group of cefazolin antibiotics added only (a concentration being 80 μg/mL for sensitive bacteria K12, and a concentration being 2 mg/mL for resistant bacteria K12-RCZO), and group of cefazolin and 2 mM compound amino acids added. Bacteria were incubated at 37° C. and 200 rpm for 6 h, and then 100 μL was taken for doubling dilution, and 10 μL of bacterial solution was taken therefrom for plate count to calculate a survival rate of bacteria; results are shown in FIG. 3.
In order to explore the relationship between compound amino acids improving sensitivity of resistant bacteria to antibiotics and antibiotic concentration, 8 cefazolin concentration gradients (0, 62.5, 125, 250, 500, 1,000, 2,000 and 4,000 μg/mL) were set up; then, 2 mM compound amino acids were added or not added, respectively, after 6 h, plate count method was used to count viable bacteria; under the same antibiotics concentration, survival rates of bacteria when compound amino acids not added (control) and after compound amino acids added were compared.

[6] = tested on: Escherichia coli strains clinically obtained; test: MIC against cefazolin (NCCLS method); format: cell-based
From the text: (§1) Escherichia coli (E. coli) is one of the most common bacteria in clinical practice. 35 Escherichia coli strains clinically obtained were named as Y1 to Y12, Y15 to Y24, Y27, Y28, and Y30 to Y40. The minimum inhibitory concentration (MIC) of these 35 Escherichia coli strains clinically obtained against cefazolin antibiotics was detected according to the NCCLS method, at the same time, Escherichia coli sensitive bacteria K12 and cefazolin-resistant bacteria K12-RCZO were used as controls to determine the MIC.

[7] = tested on: Bacillus subtilis; test: survival rate, compound amino acids in synergy with cefazolin; format: cell-based; details: cefazolin 80 μg/mL without compound amino acids, 6 h
Experimental: (§2) Other Gram-negative bacteria such as Vibrio alginolyticus, Vibrio parahaemolyticus, and Pseudomonas aeruginosa, and Gram-positive bacteria Bacillus subtilis were selected as research objects to investigate bactericidal effect of compound amino acids in synergy with cefazolin; among them, concentration of compound amino acids was 2 mM, concentration of cefazolin was 80 μg/mL, and incubation time was 6 h, a relative survival rate of bacteria was calculated.

[8] = tested on: Pseudomonas aeruginosa; test: as above; format: cell-based; details: cefazolin 80 μg/mL without compound amino acids, 6 h
Experimental: as §2

[9] = tested on: Vibrio alginolyticus; test: as above; format: cell-based; details: cefazolin 80 μg/mL without compound amino acids, 6 h
Experimental: as §2

[10] = tested on: Vibrio parahaemolyticus; test: as above; format: cell-based; details: cefazolin 80 μg/mL without compound amino acids, 6 h
Experimental: as §2

[11] = tested on: Escherichia coli cefazolin-resistant bacteria (K12-RCZO); test: MIC against cefazolin; format: cell-based
From the text: as §1

[12] = tested on: Escherichia coli sensitive bacteria K12; test: MIC against cefazolin; format: cell-based
From the text: as §1

## C[C@H](N)C(=O)O [alanine]
[1]; amino acid alone at 404 μM in synergy with cefazolin
  survival rate: 73.6%

## CC1(C)S[C@@H]2[C@H](NC(=O)[C@H](N)c3ccccc3)C(=O)N2[C@H]1C(=O)O [ampicillin]
[2]
  survival rate: 87.2%
[3]; ampicillin 40 μg/mL, second of 8 values, taken as ampicillin without compound amino acids
  survival rate: 86.7%

## N=C(N)NCCC[C@H](N)C(=O)O [arginine]
[1]; amino acid alone at 140 μM in synergy with cefazolin
  survival rate: 97.3%

## N[C@@H](CC(=O)O)C(=O)O [aspartate]
[1]; amino acid alone at 56 μM in synergy with cefazolin
  survival rate: 94.5%

## CNC1CCCN(c2c(F)cc3c(=O)c(C(=O)O)cn(C4CC4)c3c2OC)C1 (centres unmarked) [balofloxacin]
[4]
  survival rate: 90.2%

## Cc1nnc(SCC2=C(C(=O)O)N3C(=O)[C@@H](NC(=O)Cn4cnnn4)[C@H]3SC2)s1 [cefazolin]
[5]; as printed in b79: K12-RCZO, compound amino acids 0 mM, 1000 μg/mL cefazolin (results of FIG. 4)
  survival rate of bacteria: 89.6%
[5]; cefazolin 62.5 μg/mL, compound amino acids not added, 6 h
  survival rate of bacteria: 87.5%
[5]; cefazolin 125 μg/mL, compound amino acids not added, 6 h
  survival rate of bacteria: 96.9%
[5]; cefazolin 250 μg/mL, compound amino acids not added, 6 h
  survival rate of bacteria: 83.3%
[5]; cefazolin 500 μg/mL, compound amino acids not added, 6 h
  survival rate of bacteria: 78.6%
[5]; cefazolin 1,000 μg/mL, compound amino acids 0 mM, 6 h
  survival rate: 92.6%
[5]; cefazolin 1,000 μg/mL, compound amino acids not added, 6 h
  survival rate of bacteria: 83.3%
[5]; cefazolin 2,000 μg/mL, compound amino acids not added, 6 h
  survival rate of bacteria: 84.4%
[5]; cefazolin 4,000 μg/mL, compound amino acids not added, 6 h
  survival rate of bacteria: 69.8%
[6]; 37% of the remaining clinical Escherichia coli resistant bacteria
  MIC: > 640 µg/mL
[6]; clinical strain Y1
  MIC: 40 µg/mL (≈ 88 µM)
[6]; clinical strain Y3
  MIC: 2.5 µg/mL (≈ 5.5 µM)
[6]; clinical strain Y5
  MIC: 10 µg/mL (≈ 22 µM)
[6]; clinical strain Y6
  MIC: 40 µg/mL (≈ 88 µM)
[6]; clinical strain Y7
  MIC: 2.5 µg/mL (≈ 5.5 µM)
[6]; clinical strain Y8
  MIC: 5 µg/mL (≈ 11 µM)
[6]; clinical strain Y11
  MIC: 10 µg/mL (≈ 22 µM)
[6]; clinical strain Y12
  MIC: 40 µg/mL (≈ 88 µM)
[6]; clinical strain Y15
  MIC: 5 µg/mL (≈ 11 µM)
[6]; clinical strain Y16
  MIC: 5 µg/mL (≈ 11 µM)
[6]; clinical strain Y17
  MIC: 10 µg/mL (≈ 22 µM)
[6]; clinical strain Y18
  MIC: 20 µg/mL (≈ 44 µM)
[6]; clinical strain Y19
  MIC: 5 µg/mL (≈ 11 µM)
[6]; clinical strain Y20
  MIC: 20 µg/mL (≈ 44 µM)
[6]; clinical strain Y21
  MIC: 20 µg/mL (≈ 44 µM)
[6]; clinical strain Y22
  MIC: 5 µg/mL (≈ 11 µM)
[6]; clinical strain Y23
  MIC: 2.5 µg/mL (≈ 5.5 µM)
[6]; clinical strain Y24
  MIC: 20 µg/mL (≈ 44 µM)
[6]; clinical strain Y28
  MIC: 5120 µg/mL (≈ 11300 µM)
[6]; clinical strain Y32
  MIC: 5120 µg/mL (≈ 11300 µM)
[6]; clinical strain Y36
  MIC: 5120 µg/mL (≈ 11300 µM)
[6]; clinical strain Y40
  MIC: 20 µg/mL (≈ 44 µM)
[1]; M9 control group with antibiotics added (1 mg/mL cefazolin), 6 h
  survival rate of bacteria: 45.9%
[1]; only cefazolin is added
  survival rate of bacteria: 85.04%
[7]
  survival rate: 58.0%
[8]
  survival rate: 85.9%
[9]
  survival rate: 62.1%
[10]
  survival rate: 79.3%
[11]; Escherichia coli, read-out: MIC against cefazolin
  MIC: 80 µg/mL (≈ 176 µM)
[11]; K12-RCZO vs K12
  MIC relative to that of the starting strain: 64 times
[12]
  MIC: 1.25 µg/mL (≈ 2.75 µM)
[3]; cefazolin 80 μg/mL, compound amino acids 0 mM, 6 h
  survival rate: 89.6%

## CO/N=C(\C(=O)N[C@@H]1C(=O)N2C(C(=O)O)=C(CSC(=O)c3ccco3)CS[C@H]12)c1csc(N)n1 [ceftiofur]
[3]; ceftiofur 200 μg/mL, 6 h
  survival rate of bacteria: 61.9%

## CO/N=C(\C(=O)N[C@@H]1C(=O)N2C(C(=O)O)=C(CSc3nc(=O)c(=O)[nH]n3C)CS[C@H]12)c1csc(N)n1 [ceftriaxone]
[3]; ceftriaxone 10 μg/mL, 6 h
  survival rate of bacteria: 73.1%

## N[C@@H](CSSC[C@H](N)C(=O)O)C(=O)O [cystine]
[1]; amino acid alone at 4 μM in synergy with cefazolin
  survival rate: 94.1%

## N[C@@H](CCC(=O)O)C(=O)O [glutamic acid]
[1]; amino acid alone at 85 μM in synergy with cefazolin
  survival rate: 94.5%

## NCC(=O)O [glycine]
[1]; amino acid alone at 233 μM in synergy with cefazolin
  survival rate: 71.4%

## N[C@@H](Cc1c[nH]cn1)C(=O)O [histidine]
[1]; amino acid alone at 96 μM in synergy with cefazolin
  survival rate: 97.6%

## CC[C@H](C)[C@H](N)C(=O)O [isoleucine]
[1]; amino acid alone at 95 μM in synergy with cefazolin
  survival rate: 69.6%

## CC(C)C[C@H](N)C(=O)O [leucine]
[1]; amino acid alone at 129 μM in synergy with cefazolin
  survival rate: 75.7%

## CC(=O)O.NCCCC[C@H](N)C(=O)O [lysine acetate]
[1]; amino acid alone at 133 μM in synergy with cefazolin
  survival rate: 68.6%

## CSCC[C@H](N)C(=O)O [methionine]
[1]; amino acid alone at 83 μM in synergy with cefazolin
  survival rate: 91.5%

## N[C@@H](Cc1ccccc1)C(=O)O [phenylalanine]
[1]; amino acid alone at 106 μM in synergy with cefazolin
  survival rate: 98.8%

## O=C(O)[C@@H]1CCCN1 [proline]
[1]; amino acid alone at 126 μM in synergy with cefazolin
  survival rate: 85.4%

## N[C@@H](CO)C(=O)O [serine]
[1]; amino acid alone at 47 μM in synergy with cefazolin
  survival rate: 67.9%

## C[C@@H](O)[C@H](N)C(=O)O [threonine]
[1]; amino acid alone at 105 μM in synergy with cefazolin
  survival rate: 59.4%

## N[C@@H](Cc1c[nH]c2ccccc12)C(=O)O [tryptophan]
[1]; amino acid alone at 20 μM in synergy with cefazolin
  survival rate: 67.4%

## N[C@@H](Cc1ccc(O)cc1)C(=O)O [tyrosine]
[1]; amino acid alone at 5 μM in synergy with cefazolin
  survival rate: 80.5%

## CC(C)[C@H](N)C(=O)O [valine]
[1]; amino acid alone at 136 μM in synergy with cefazolin
  survival rate: 78.8%
